This is an account of results in patent US20150225369A1, “DDR2 INHIBITORS FOR THE TREATMENT OF OSTEOARTHRITIS” (Merck Patent GmbH, priority 2012, published 2015).

Assay [1] deals with T1, His-tagged human recombinant DDR-2 kinase domain (His-TEV-DDR2 467-855 aa) (Homo sapiens, UniProt Q16832).
T1 construct: His-TEV-DDR2 467-855 aa
T1 sequence (Q16832 467-855): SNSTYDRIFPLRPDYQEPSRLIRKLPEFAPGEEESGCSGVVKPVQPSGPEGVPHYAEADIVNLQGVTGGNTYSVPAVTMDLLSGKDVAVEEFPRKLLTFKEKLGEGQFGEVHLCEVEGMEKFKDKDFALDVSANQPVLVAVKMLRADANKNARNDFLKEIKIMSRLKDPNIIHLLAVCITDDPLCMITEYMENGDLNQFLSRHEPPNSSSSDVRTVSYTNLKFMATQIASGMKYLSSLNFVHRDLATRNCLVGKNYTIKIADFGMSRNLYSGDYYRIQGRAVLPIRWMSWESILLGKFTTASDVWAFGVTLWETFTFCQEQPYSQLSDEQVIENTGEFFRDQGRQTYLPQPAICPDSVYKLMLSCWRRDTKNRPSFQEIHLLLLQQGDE
The experiment in a line: Autophosphorylation assay for biochemical activity testing of DDR2 (HTRF). Particulars: 4 nM DDR2 kinase domain, 150 μM ATP, 150 min at 22° C. Put shortly: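 Phospho-tyrosine was detected by HTRF between XL665 anti-6His and cryptate anti-phosphotyrosine PT66 antibodies, using the emission ratio. Inhibition was referenced to the inhibitor-free reaction.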
(Time-resolved FRET reads energy transfer from a long-lived donor to a nearby acceptor.)

The target of assay [2] is T2, HEK293 transfected with human DDR2 (Homo sapiens, UniProt Q16832).
T2 construct: expressed in transfected cells; host or cells: HEK293 (PLT460F_(DDR2)-P7-1)
T2 sequence (Q16832 22-855): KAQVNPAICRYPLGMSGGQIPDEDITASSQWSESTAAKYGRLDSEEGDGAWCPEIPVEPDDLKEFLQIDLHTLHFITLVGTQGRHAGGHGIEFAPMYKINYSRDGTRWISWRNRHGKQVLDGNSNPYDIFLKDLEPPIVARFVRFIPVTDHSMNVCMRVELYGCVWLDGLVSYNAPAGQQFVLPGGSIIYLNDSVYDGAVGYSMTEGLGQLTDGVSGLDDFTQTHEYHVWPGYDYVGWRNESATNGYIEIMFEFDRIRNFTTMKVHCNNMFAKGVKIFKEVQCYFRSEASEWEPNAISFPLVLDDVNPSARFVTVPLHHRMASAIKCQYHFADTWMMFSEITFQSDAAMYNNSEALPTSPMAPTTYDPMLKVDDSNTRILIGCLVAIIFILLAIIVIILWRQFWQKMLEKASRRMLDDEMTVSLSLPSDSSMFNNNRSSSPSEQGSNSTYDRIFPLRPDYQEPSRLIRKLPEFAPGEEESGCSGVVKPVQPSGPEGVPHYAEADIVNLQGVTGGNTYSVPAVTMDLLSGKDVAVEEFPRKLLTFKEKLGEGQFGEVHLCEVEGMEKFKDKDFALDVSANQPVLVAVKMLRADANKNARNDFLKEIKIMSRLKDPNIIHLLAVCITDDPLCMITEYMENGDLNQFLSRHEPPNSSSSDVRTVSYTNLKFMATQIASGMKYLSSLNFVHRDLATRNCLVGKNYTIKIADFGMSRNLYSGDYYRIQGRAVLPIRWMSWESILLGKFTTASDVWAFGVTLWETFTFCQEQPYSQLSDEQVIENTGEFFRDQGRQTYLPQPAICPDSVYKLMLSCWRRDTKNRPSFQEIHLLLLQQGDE
The assay can be described thus: Phospho-DDR2 cellular assay (collagen II induced DDR2 phosphorylation, ELISA). The class given is cell-based. Particulars: HEK293 transfected with human DDR2, 50 μg/ml chicken collagen II, 16 h; read-out: IC50 [p-DDR2]. Put shortly: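 Cells seeded 48 h in 10% FBS, serum-starved 8 h, then given compound (5% DMSO) with 50 μg/ml chicken collagen II for 16 h at 37 °C. Lysates captured on anti-DDR2 antibody plates; phospho-DDR2 detected with HRP anti-phosphotyrosine antibody by chemiluminescence.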
In general terms: In an ELISA, binding on a coated surface is turned into a signal by an enzyme label.

The IC50 is the concentration at which inhibition is half-maximal. As to `Cc1cc(Oc2ccc(CNC(=O)Nc3cc(C(F)(F)F)cn(C)c3=O)cc2C)ccn1` [compound 6], the IC50 in assay [1] worked out at 0.11 µM; in assay [2], 0.03 µM.

Turning to `CNC(=O)c1cc(Oc2ccc(CNC(=O)Nc3cc(C(F)(F)F)cn(C)c3=O)cc2C)ccn1` [compound 7], the IC50 was 0.037 µM in assay [1] and 0.012 µM in assay [2].

Consider `CNC(=O)c1cc(Oc2ccc(CNC(=O)Nc3cc(C(F)(F)F)cn(C)c3=O)cc2)ccn1` [compound 8], for which the IC50 in assay [1] is 0.097 µM; in assay [2], 0.028 µM.

For the molecule `COc1ncc(C)cc1NC(=O)NCc1ccc(Oc2ccncc2)cc1` [compound 18], the IC50 was 0.1 µM in assay [1] and 0.03 µM in assay [2].

As for `CNC(=O)c1cc(Oc2ccc(CNC(=O)Nc3cc(C)cnc3OC)cc2)ccn1` [compound 19], the IC50 in assay [1] was 0.063 µM; in assay [2], 0.024 µM.

Consider `CNC(=O)c1cc(Oc2ccc(CNC(=O)Nc3cc(Cl)cnc3OC)cc2)ccn1` [compound 21], for which the results for the IC50 in assay [1] and in assay [2] were 0.044 µM and 0.014 µM, respectively.

As to `CNC(=O)c1cc(Oc2ccc(CNC(=O)Nc3cc(Cl)cnc3OC)cc2C)ccn1` [compound 23], the results for the IC50 in assay [1] and in assay [2] were 0.037 µM and 0.0068 µM, respectively.

For `CNC(=O)c1cc(Oc2ccc(CNC(=O)Nc3cc(C(F)(F)F)cnc3Cl)cc2C)ccn1` [compound 26], the IC50 in assay [1] is 0.052 µM; in assay [2], 0.043 µM.

With `COc1ncc(Cl)cc1NC(=O)NCc1ccc(Oc2ccnc(C)c2)c(C)c1` [compound 28], the IC50 in assay [1] is 0.11 µM; in assay [2] it was 0.017 µM.

Take `Cc1cc(Oc2ccc(CNC(=O)Nc3cc(C(F)(F)F)cnc3Cl)cc2C)ccn1` [compound 30]: the IC50 in assay [1] turned out to be 0.1 µM; in assay [2], 0.06 µM.
